Results as given in patent US20230165792A1, “LIQUID FORMULATION AND PHARMACEUTICAL PRODUCT CONTAINING CILASTATIN” (Denka Company Limited, priority 2020, published 2023).
Like-named read-outs stand apart in the source and are kept apart here.

Assays:
[1] = for Absorbance: 400 nm; for Cilastatin content: HPLC
Method: Then, the glass vial was sealed and heated at 80° C. for 4 hours (to obtain a nitrogen-purged, heated sample). The aqueous solution before heating and the two samples prepared above were measured for absorbance, which served as an index for the degree of coloration, and also analyzed by HPLC to confirm the content of cilastatin.
The analysis conditions are detailed below.
Absorbance Measurement Conditions:
Equipment: Hitachi U-3900
Optical path length: 1 cm
HPLC Analysis Conditions:
Detector: Ultraviolet absorptiometer (measurement wavelength: 216 nm)
Column: 1.7 μm octadecylsilylated silica gel column (Acquity BEH C18, produced by Waters), 2.1 mm I.D., 50 mm long
Column temperature: 40° C.
Mobile phase: 25 mM phosphate buffer containing 9.5% acetonitrile (pH 4.25)
Amount of sample injected: 5 μL (prepared to 100 μg/mL)
Retention time: Cilastatin (about 2.6 min.)

[2] = N2-purged headspace, heated 80° C. for 4 hours

appearance according to visual observation ([1]; 200 mg/mL aqueous solution): slightly yellow
pH at the time of preparation ([1]; 200 mg/mL aqueous solution): 6.79
Absorbance [1, 2]: 0.166
Cilastatin content [1, 2]: 99.15%
Absorbance ([1]; before heating, 200 mg/mL aqueous solution, optical path 1 cm): 0.040
Cilastatin content ([1]; before heating): 98.99%
Absorbance ([1]; heated sample: sealed glass vial, 80° C. for 4 hours): 0.203
content of cilastatin (after storage at 45° C.): decreased slightly
color of solution (after storage at 45° C. for 23 days): yellow
color of solution (after storage at 45° C. for 65 days): brown
color of solution (at the time of preparation, deionized water): slightly yellow
Structure (SMILES): CC1(C)C[C@@H]1C(=O)N/C(=C\CCCCSC[C@H](N)C(=O)O)C(=O)O [cilastatin sodium, (Z)-7-[[(R)-2-amino-2-carboxyethyl]thio]-2-[[[(S)-2,2-dimethylcyclopropyl]carbonyl]amino]-2-heptenoic acid]
